In brackets after ≈: the same amount, converted by molar mass. Where two headings read alike, the source gives them in different places.
Experiments:
efflux protein = biological target: T1, efflux protein (Escherichia coli, UniProt P02980); assay: everted membrane vesicle assay, blocking activity of 13-S-derivatives; format: biochemical
T1 sequence (P02980 1-401): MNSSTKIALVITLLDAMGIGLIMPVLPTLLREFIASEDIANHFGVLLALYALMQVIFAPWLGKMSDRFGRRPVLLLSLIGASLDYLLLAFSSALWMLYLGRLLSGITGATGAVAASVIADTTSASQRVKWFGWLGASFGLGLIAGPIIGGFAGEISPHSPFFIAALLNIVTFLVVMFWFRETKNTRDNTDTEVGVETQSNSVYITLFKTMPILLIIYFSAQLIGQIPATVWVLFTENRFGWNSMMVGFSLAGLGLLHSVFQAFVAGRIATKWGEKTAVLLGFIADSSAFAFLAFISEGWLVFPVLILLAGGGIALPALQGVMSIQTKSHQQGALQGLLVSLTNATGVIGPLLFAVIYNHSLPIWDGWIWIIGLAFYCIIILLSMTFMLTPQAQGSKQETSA

[1] = test system: E. coli Class A Tc^r (DI-299); format: cell-based; conditions: drug alone; for MLC: kills 99.9%
[2] = test system: E. coli Tc^s (MI 308-226); assay: susceptibility testing MIC/MLC, drug alone; format: cell-based; conditions: for MLC: kills 99.9%
[3] = test system: tetracycline resistant (Class A) E. coli (strain D1-299); conditions: in combination with tetracycline
[4] = test system: E. faecalis Tc^s (ATCC9790r); assay: susceptibility testing MIC/MLC, drug alone; format: cell-based
[5] = test system: tetracycline resistant S. aureus; conditions: in combination with tetracycline
S. aureus Tc^r (RN4250) = format: cell-based
[6] = test system: E. faecalis Tc^r(M) (ATCC09790r/TelM); format: cell-based; conditions: drug alone; for MLC: kills 99.9%
[7] = test system: E. faecalis Tc^r (L) ATCC9790r/Tell.); assay: susceptibility testing MIC/MLC, drug alone; format: cell-based
E. faecalis (Class M) = conditions: result in words
[8] = test system: E. coli Class B Tc^r (DI-209); format: cell-based; conditions: drug alone; for MLC: kills 99.9%
S. aureus 450 = assay: susceptibility of tetracycline susceptible strains (MIC), C5 esters; format: cell-based; conditions: S. aureus 450, susceptible strain, drug alone
E. coli ML308 = assay: as above; format: cell-based; conditions: E. coli ML308, susceptible strain, drug alone
E. faecalis ATCC 9790 = assay: as above; format: cell-based; conditions: E. faecalis ATCC 9790, susceptible strain, drug alone
E. coli DI-299 (Tet A) = assay: MIC/MLC chart, analog with and without doxycycline; format: cell-based; design: key to growth/killing, Analog + Doxy / growth/killing, Doxy Control / growth/killing, Analog Control / growth in MIC/MLC chart: +=growth; 0=no growth (MIC); ↓=killing; ? =99.9% killing (MLC); □=no growth, but no microbiologic testing;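 further: bacterial growth inhibition and killing in broth, each agent tested alone or combined with doxycycline across two-fold serial dilutions, overnight incubation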
E. faecalis 211 (Tet M) = assay: MIC/MLC chart, analog with and without doxycycline; format: cell-based
[9] = Tc^r(RN4250), drug alone, kills 99.9%
[10] = Tc^r (L) ATCC9790r/Tell.), drug alone
[11] = Tc^r (L) ATCC9790r/Tell.), drug alone, kills 99.9%
[12] = E. faecalis bearing the Tet L determinant
[13] = Analog Control: analog alone .195 μg/ml
[14] = analog .195 μg/ml + doxycycline 1.56 μg/ml
[15] = analog .195 μg/ml + doxycycline 3.12 μg/ml
[16] = analog .195 μg/ml + doxycycline 6.25 μg/ml

Structure (SMILES): CN(C)C1C(O)=C(C(N)=O)C(=O)C2(O)C(O)=C3C(=O)c4c(O)cccc4C(CSC4CCCC4)C3C(O)C12 (stereo not drawn) [Cyclopentyl, 13-cyclopentylthio-5-hydroxy-6-α-deoxy-tetracycline]
- Ki (efflux protein): 367 nM
- MIC [1]: 40 ± 0.25 µg
- MLC [1]: 80 µg
- MIC ([2]; Tc^s (MI 308-226), drug alone): 20 µg
- MLC ([2]; Tc^s (MI 308-226), drug alone): 60 µg
- concentrations of analogue and tetracycline that inhibited growth [3]: ≤ 5 μg/ml
- MIC [4]: 1 ± 0.25 µg
- combined dose of the two drugs to achieve MLC [5]: ≤ 6 µg/mL
- MIC (S. aureus Tc^r (RN4250); Tc^r(RN4250), drug alone): 2 ± 0.25 µg
- MLC (S. aureus Tc^r (RN4250); [9]): 6 ± 2 µg
- MLC (S. aureus Tc^r (RN4250); resistant S. aureus): 6 ± 2 µg/mL (≈ 11 µM)
- MIC [6]: 3 ± 1 µg
- MLC [6]: >16 µg
- MIC [7, 10]: 1 ± 0.5 µg
- MLC [7, 11]: 18 ± 2 µg
- synergistic activity with tetracycline (E. faecalis (Class M)): little, if any synergistic activity
- MIC [8]: 80 ± 40 µg
- MLC [8]: 100 ± 60 µg

Structure (SMILES): CN(C)C1C(O)=C(C(N)=O)C(=O)C2(O)C(O)=C3C(=O)c4c(O)cccc4C(CSC4CCCCC4)C3C(O)C12 (stereo not shown) [Cyclohexyl]
- Ki (efflux protein): 716 nM
- MIC [1]: 100 ± 0.26 µg
- MLC [1]: >200 µg
- MIC ([2]; Tc^s (MI 308-226), drug alone): 60 ± 10 µg
- MLC ([2]; Tc^s (MI 308-226), drug alone): 120 µg
- concentrations of analogue and tetracycline that inhibited growth [3]: ≤ 5 μg/ml
- MIC [4]: 1.25 ± 0.25 µg
- combined dose of the two drugs to achieve MLC [5]: ≤ 6 µg/mL
- MIC (S. aureus Tc^r (RN4250); Tc^r(RN4250), drug alone): 1.5 ± 0.5 µg
- MLC (S. aureus Tc^r (RN4250); [9]): 10 ± 4 µg
- MIC [6]: 2.5 ± 0.5 µg
- MLC [6]: 10 ± 0.25 µg
- MLC [7, 12]: 8 ± 2 µg/mL (≈ 14.3 µM)
- MIC [7, 10]: 1.5 ± 0.5 µg
- MLC [7, 11]: 8 ± 2 µg
- synergistic activity with tetracycline (E. faecalis (Class M)): little, if any synergistic activity

Structure (SMILES): CN(C)C1C(O)=C(C(N)=O)C(=O)C2(O)C(O)=C3C(=O)c4c(O)cccc4C(CSCc4ccccc4)C3C(O)C12 (stereo not shown) [Benzyl, 6-deoxy-13-(benzylmercapto) tetracycline]
- Ki (efflux protein): 1590 nM
- MIC [1]: 45 ± 20 µg
- MLC [1]: 150 ± 50 µg
- MIC ([2]; Tc^s (MI 308-226), drug alone): 16 ± 5 µg
- MLC ([2]; Tc^s (MI 308-226), drug alone): 25 ± 6 µg
- MIC [4]: 0.5 ± 0.25 µg
- combined dose of the two drugs to achieve MLC [5]: ≤ 6 µg/mL
- MIC (S. aureus Tc^r (RN4250); Tc^r(RN4250), drug alone): 1 ± 0.25 µg
- MLC (S. aureus Tc^r (RN4250); [9]): 10 ± 4 µg
- MIC [6]: 3.5 ± 1 µg
- MLC [6]: 18 ± 2 µg
- MLC [7, 12]: 8 ± 2 µg/mL (≈ 14.1 µM)
- MIC [7, 10]: 0.75 ± 0.25 µg
- MLC [7, 11]: 8 ± 2 µg
- synergistic activity with tetracycline (E. faecalis (Class M)): little, if any synergistic activity
- MIC [8]: 30 ± 0.25 µg
- MLC [8]: 90 ± 10 µg

Structure (SMILES): CCCSCC1c2cccc(O)c2C(=O)C2=C(O)C3(O)C(=O)C(C(N)=O)=C(O)C(N(C)C)C3C(OC(=O)CC)C21 (stereo not shown) [Cmpd 8, 13-propylthio-5-proprionate-6-deoxy-tetracycline]
- MIC (S. aureus 450): .3 µg/mL (≈ 0.522 µM)
- MIC (E. coli ML308): 20 µg/mL (≈ 34.8 µM)
- MIC (E. faecalis ATCC 9790): 2.5 µg/mL (≈ 4.35 µM)

Structure (SMILES): CCSCC1c2cccc(O)c2C(=O)C2=C(O)C3(O)C(=O)C(C(N)=O)=C(O)C(N(C)C)C3CC21 (stereo not shown) [Ethyl, 6-deoxy-13-(ethylmercapto) tetracycline]
- MIC [1]: 14 ± 4 µg
- MLC [1]: 45 ± 5 µg
- MIC ([2]; Tc^s (MI 308-226), drug alone): 5 ± 0.25 µg
- MLC ([2]; Tc^s (MI 308-226), drug alone): 50 µg
- MIC ([2]; susceptible E. coli): 5 µg/mL (≈ 10.2 µM)
- concentrations of analogue and tetracycline that inhibited growth [3]: ≤ 5 μg/ml
- MIC [4]: 1 ± 0.5 µg
- MIC [6]: 25 ± 5 µg
- MIC [7, 10]: 4 ± 1 µg
- MIC [8]: 36 ± 16 µg
- MLC [8]: 50 ± 10 µg

Structure (SMILES): CCC(=O)OC1C2C(=C(O)C3(O)C(=O)C(C(N)=O)=C(O)C(N(C)C)C13)C(=O)c1c(O)cccc1C2CSC1CCCC1 (stereo not shown) [Cmpd 5, 13-cyclopentylthio-5-proprionate-6-deoxy tetracycline]
- MIC (S. aureus 450): .4 µg/mL (≈ 0.666 µM)
- MIC (E. coli ML308): 20 µg/mL (≈ 33.3 µM)
- MIC (E. faecalis ATCC 9790): .4 µg/mL (≈ 0.666 µM)
- growth in MIC/MLC chart (E. coli DI-299 (Tet A); Analog Control: analog alone 1.56 μg/ml): +
- growth in MIC/MLC chart (E. coli DI-299 (Tet A); Analog Control: analog alone 3.12 μg/ml): +
- growth in MIC/MLC chart (E. coli DI-299 (Tet A); Analog Control: analog alone 6.25 μg/ml): +
- growth in MIC/MLC chart (E. coli DI-299 (Tet A); Analog Control: analog alone 12.5 μg/ml): +
- growth in MIC/MLC chart (E. coli DI-299 (Tet A); Analog Control: analog alone 25.0 μg/ml): +
- growth in MIC/MLC chart (E. coli DI-299 (Tet A); Analog Control: analog alone 50.00 μg/ml): +
- growth in MIC/MLC chart (E. coli DI-299 (Tet A); [13]): +
- growth in MIC/MLC chart (E. coli DI-299 (Tet A); Analog Control: analog alone .39 μg/ml): +
- growth in MIC/MLC chart (E. coli DI-299 (Tet A); Analog Control: analog alone .78 μg/ml): +
- growth in MIC/MLC chart (E. coli DI-299 (Tet A); analog 1.56 μg/ml + doxycycline 1.55 μg/ml): +
- growth in MIC/MLC chart (E. coli DI-299 (Tet A); analog 1.56 μg/ml + doxycycline 3.1 μg/ml): +
- growth in MIC/MLC chart (E. coli DI-299 (Tet A); analog 1.56 μg/ml + doxycycline 6.2 μg/ml): +
- growth in MIC/MLC chart (E. coli DI-299 (Tet A); analog 3.12 μg/ml + doxycycline 1.53 μg/ml): +
- growth in MIC/MLC chart (E. coli DI-299 (Tet A); analog 3.12 μg/ml + doxycycline 3.05 μg/ml): +
- growth in MIC/MLC chart (E. coli DI-299 (Tet A); analog 3.12 μg/ml + doxycycline 6.1 μg/ml): +
- growth in MIC/MLC chart (E. coli DI-299 (Tet A); analog 6.25 μg/ml + doxycycline 3.0 μg/ml): +
- growth in MIC/MLC chart (E. coli DI-299 (Tet A); analog 6.25 μg/ml + doxycycline […]): +
- growth in MIC/MLC chart (E. coli DI-299 (Tet A); analog 12.5 μg/ml + doxycycline 2.8 μg/ml): +
- growth in MIC/MLC chart (E. coli DI-299 (Tet A); analog 12.5 μg/ml + doxycycline […]): +
- growth in MIC/MLC chart (E. coli DI-299 (Tet A); analog 25 μg/ml + doxycycline 2.4 μg/ml): +
- growth in MIC/MLC chart (E. coli DI-299 (Tet A); analog 25 μg/ml + doxycycline […]): +
- growth in MIC/MLC chart (E. coli DI-299 (Tet A); analog 50 μg/ml + doxycycline 1.56 μg/ml): +
- growth in MIC/MLC chart (E. coli DI-299 (Tet A); analog 50 μg/ml + doxycycline .78 μg/ml): +
- growth in MIC/MLC chart (E. coli DI-299 (Tet A); [14]): +
- growth in MIC/MLC chart (E. coli DI-299 (Tet A); [15]): +
- growth in MIC/MLC chart (E. coli DI-299 (Tet A); [16]): +
- growth in MIC/MLC chart (E. coli DI-299 (Tet A); analog .195 μg/ml + doxycycline 12.5 μg/ml): +
- growth in MIC/MLC chart (E. coli DI-299 (Tet A); analog .195 μg/ml + doxycycline 25.0 μg/ml): +
- growth in MIC/MLC chart (E. coli DI-299 (Tet A); analog .39 μg/ml + doxycycline 1.56 μg/ml): +
- growth in MIC/MLC chart (E. coli DI-299 (Tet A); analog .39 μg/ml + doxycycline 3.12 μg/ml): +
- growth in MIC/MLC chart (E. coli DI-299 (Tet A); analog .39 μg/ml + doxycycline 6.25 μg/ml): +
- growth in MIC/MLC chart (E. coli DI-299 (Tet A); analog .39 μg/ml + doxycycline 12.5 μg/ml): +
- growth in MIC/MLC chart (E. coli DI-299 (Tet A); analog .39 μg/ml + doxycycline 24.9 μg/ml): ↓
- growth in MIC/MLC chart (E. coli DI-299 (Tet A); analog .78 μg/ml + doxycycline 1.56 μg/ml): +
- growth in MIC/MLC chart (E. coli DI-299 (Tet A); analog .78 μg/ml + doxycycline 3.12 μg/ml): +
- growth in MIC/MLC chart (E. coli DI-299 (Tet A); analog .78 μg/ml + doxycycline 6.23 μg/ml): +
- MLC of analog in combination (E. coli DI-299 (Tet A); with 5.9 μg/ml of doxycycline (Chart 8A)): 6.25 μg/ml
- growth in MIC/MLC chart (E. faecalis 211 (Tet M); [13]): +
- growth in MIC/MLC chart (E. faecalis 211 (Tet M); [14]): +
- growth in MIC/MLC chart (E. faecalis 211 (Tet M); [15]): +
- growth in MIC/MLC chart (E. faecalis 211 (Tet M); [16]): +

From patent US7732429B2 (Trustees of Tufts College, priority 1994, dated 2010)
